The EC50 is the concentration giving half of the maximal effect. One may read the IC50 as the concentration at which inhibition is half-maximal. Broadly, the AC50 is the concentration giving half of the maximal activity seen. For orientation: pIC50 means the negative decadic logarithm of the IC50, by convention in mol/L. Broadly, the GI50 is the concentration that inhibits growth by half.

The text below walks through data of ChEMBL document CHEMBL1201862, “PubChem BioAssay data set” (2004).

Assay [1] has as its target T1, Lysosomal acid glucosylceramidase (Homo sapiens, UniProt P04062).
T1 sequence (P04062 whole entry): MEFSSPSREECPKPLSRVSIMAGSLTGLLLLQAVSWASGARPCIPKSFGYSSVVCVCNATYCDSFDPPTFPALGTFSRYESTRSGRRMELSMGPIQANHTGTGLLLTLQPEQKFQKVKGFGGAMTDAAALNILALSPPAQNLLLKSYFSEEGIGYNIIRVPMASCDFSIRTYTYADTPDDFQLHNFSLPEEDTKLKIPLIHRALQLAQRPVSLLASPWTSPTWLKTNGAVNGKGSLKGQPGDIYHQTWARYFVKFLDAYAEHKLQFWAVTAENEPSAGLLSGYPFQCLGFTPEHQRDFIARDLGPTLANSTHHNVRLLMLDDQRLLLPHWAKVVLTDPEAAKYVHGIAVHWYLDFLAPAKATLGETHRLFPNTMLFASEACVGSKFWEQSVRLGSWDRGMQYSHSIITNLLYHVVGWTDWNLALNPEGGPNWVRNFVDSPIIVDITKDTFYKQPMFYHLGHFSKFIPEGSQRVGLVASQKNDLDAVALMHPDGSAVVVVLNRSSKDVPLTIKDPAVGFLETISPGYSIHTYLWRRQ
Kind of assay: Dose response cell-based high throughput screening assay to identify enhancers of beta-glucosidase activity. [Related pubchem assays: 784 ]. The assay is classed as functional.

A short description of assay [2]: luciferase reporter signal suppression in cells – H4 neuroglioma cells, luminescence, dose response (AID 1990). The assay is classed as functional, cell-based.
A short description of assay [3]: fluconazole-exposed Candida albicans growth modulators – fluorescence, retest, confirmation (AID 2467). Type of assay: functional, cell-based.
Another assay has as its target T2, Protein RecA (Mycobacterium tuberculosis, UniProt P9WHJ3).
T2 sequence (P9WHJ3 whole entry): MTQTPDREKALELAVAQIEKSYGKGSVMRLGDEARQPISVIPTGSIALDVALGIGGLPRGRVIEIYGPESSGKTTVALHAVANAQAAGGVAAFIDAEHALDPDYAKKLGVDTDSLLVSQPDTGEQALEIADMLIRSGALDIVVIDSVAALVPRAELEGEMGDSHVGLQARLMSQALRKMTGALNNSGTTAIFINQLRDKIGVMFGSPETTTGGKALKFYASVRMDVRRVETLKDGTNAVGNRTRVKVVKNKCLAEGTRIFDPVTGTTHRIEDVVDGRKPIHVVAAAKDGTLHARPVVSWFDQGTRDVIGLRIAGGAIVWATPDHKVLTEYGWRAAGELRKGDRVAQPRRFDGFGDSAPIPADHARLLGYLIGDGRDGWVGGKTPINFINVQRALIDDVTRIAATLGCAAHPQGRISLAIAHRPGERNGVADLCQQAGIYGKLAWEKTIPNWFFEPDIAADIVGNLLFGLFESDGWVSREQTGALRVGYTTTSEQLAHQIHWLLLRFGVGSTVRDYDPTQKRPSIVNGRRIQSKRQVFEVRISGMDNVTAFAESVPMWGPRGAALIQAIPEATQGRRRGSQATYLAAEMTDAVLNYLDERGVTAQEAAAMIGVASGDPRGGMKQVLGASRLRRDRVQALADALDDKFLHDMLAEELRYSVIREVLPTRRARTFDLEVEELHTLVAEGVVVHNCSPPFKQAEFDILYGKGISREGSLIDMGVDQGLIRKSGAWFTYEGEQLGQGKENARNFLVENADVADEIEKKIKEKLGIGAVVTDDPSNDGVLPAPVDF
In words: Fluorescence Cell-Free Homogeneous Dose Retest to Identify Inhibitors of RecA-Intein Splicing Activity. [Related pubchem assays (depositor defined):AID2097, AID2223, AID489010, AID492950]. The assay is classed as functional.

The next assay deals with T3, Hexokinase HKDC1 (Homo sapiens, UniProt Q2TB90).
T3 sequence (Q2TB90 whole entry): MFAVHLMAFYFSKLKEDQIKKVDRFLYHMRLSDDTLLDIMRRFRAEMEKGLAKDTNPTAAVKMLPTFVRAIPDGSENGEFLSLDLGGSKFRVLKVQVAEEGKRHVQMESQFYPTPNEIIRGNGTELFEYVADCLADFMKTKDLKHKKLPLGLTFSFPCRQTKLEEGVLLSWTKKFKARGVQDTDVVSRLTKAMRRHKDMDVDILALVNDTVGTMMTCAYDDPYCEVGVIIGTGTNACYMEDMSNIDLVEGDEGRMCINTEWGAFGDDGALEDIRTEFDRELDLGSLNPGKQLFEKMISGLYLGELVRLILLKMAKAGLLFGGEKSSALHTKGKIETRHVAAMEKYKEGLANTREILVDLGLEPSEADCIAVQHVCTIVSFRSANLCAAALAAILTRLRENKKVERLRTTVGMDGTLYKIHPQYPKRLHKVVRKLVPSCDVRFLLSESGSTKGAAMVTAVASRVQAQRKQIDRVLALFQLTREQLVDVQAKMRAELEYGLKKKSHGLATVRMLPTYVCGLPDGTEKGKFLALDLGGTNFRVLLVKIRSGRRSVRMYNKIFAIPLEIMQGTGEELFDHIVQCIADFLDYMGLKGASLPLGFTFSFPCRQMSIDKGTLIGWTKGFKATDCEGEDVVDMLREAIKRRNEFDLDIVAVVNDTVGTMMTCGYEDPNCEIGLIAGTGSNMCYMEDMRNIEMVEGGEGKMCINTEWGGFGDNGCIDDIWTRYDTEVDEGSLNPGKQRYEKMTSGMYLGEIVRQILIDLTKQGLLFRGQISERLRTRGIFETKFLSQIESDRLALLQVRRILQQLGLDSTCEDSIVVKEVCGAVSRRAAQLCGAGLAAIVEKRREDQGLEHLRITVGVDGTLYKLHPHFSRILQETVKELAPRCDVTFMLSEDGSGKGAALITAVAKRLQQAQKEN
In words: inhibition of HKDC1 glucose phosphorylation – biochemical, W721R variant, dose response (AID 504729). The assay is classed as functional.

The subject of assay [4] is BJ. Kind of assay: BJ-TERT fibroblast viability loss – cell-based, RAS-independent, luminescence, dose response (AID 1933). The conditions noted are these: Homo sapiens. The assay is classed as functional.
Assay [5] relates to BJ. Kind of assay: cells. The assay is classed as functional, cell-based. The conditions noted are these: Homo sapiens.
Assay [6] deals with T4, Microphthalmia-associated transcription factor (Homo sapiens, UniProt O75030).
T4 sequence (O75030 whole entry): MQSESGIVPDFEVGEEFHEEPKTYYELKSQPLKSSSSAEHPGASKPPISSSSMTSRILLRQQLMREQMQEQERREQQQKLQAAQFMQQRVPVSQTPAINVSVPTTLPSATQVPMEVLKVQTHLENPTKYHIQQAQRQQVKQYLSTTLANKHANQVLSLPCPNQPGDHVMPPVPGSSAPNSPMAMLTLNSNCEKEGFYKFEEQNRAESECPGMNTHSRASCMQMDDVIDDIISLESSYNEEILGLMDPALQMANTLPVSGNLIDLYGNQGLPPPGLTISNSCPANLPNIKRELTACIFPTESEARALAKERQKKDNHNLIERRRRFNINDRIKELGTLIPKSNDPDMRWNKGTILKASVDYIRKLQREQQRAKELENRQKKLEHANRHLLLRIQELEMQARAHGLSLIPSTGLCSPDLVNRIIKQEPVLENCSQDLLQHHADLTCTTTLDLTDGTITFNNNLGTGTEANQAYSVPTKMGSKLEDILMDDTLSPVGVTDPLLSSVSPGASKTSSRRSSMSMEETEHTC
In words: reducers of TRPM1 reporter luminescence, concentration series – cell-based, SK-MEL-5, cherry-picked, set 3, MITF inhibitor project, dose response (AID 493073).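 Further: SK-MEL-5 melanoma cells with luciferase driven by the MITF target TRPM1 promoter.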 The assay is classed as functional.

The nature of assay [7]: Luminescence Cell-Based Dose Response HTS to Identify Inhibitors of 5'UTR Stem-Loop Driven Prion Protein mRNA Translation in H4 Neuroglioblastoma Cells. [Related pubchem assays: 1827 (Project Summary), 1813 (Primary HTS)]. The assay is classed as functional.
The nature of assay [8]: DRD fibroblast viability loss – cell-based, non-viral oncogenic, luminescence, dose response (AID 1934). The assay is classed as functional. The following applies: Homo sapiens.
Assay [9] is described as follows: alpha-synuclein stem-loop luciferase translation blockers – H4 neuroglioma cells, luminescence, confirmation (AID 1988). Type of assay: functional, cell-based.
A short description of assay [10]: NIH-3T3 fibroblast cytotoxicity, dose response, cytotoxicity control, cell-based, fluorescence, Alamar Blue, secondary assay (AID 2327).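 Further: NIH-3T3 mouse fibroblasts cultured with fluconazole at 8 µg/mL.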 The assay is classed as functional. In general terms: Alamar Blue is a resazurin reagent that responds to reducing activity.
Assay [11] deals with BJ. In words: BJ-TERT-LT-ST fibroblast viability loss – cell-based, RAS-independent, luminescence, dose response (AID 1935).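 Further: BJ fibroblasts immortalized with TERT plus LT and ST oncogenes.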 The assay is classed as functional. The conditions noted are these: Homo sapiens.
Assay [12] deals with T5, Replicative DNA helicase DnaB (Mycobacterium tuberculosis, UniProt P9WMR3).
T5 sequence (P9WMR3 whole entry): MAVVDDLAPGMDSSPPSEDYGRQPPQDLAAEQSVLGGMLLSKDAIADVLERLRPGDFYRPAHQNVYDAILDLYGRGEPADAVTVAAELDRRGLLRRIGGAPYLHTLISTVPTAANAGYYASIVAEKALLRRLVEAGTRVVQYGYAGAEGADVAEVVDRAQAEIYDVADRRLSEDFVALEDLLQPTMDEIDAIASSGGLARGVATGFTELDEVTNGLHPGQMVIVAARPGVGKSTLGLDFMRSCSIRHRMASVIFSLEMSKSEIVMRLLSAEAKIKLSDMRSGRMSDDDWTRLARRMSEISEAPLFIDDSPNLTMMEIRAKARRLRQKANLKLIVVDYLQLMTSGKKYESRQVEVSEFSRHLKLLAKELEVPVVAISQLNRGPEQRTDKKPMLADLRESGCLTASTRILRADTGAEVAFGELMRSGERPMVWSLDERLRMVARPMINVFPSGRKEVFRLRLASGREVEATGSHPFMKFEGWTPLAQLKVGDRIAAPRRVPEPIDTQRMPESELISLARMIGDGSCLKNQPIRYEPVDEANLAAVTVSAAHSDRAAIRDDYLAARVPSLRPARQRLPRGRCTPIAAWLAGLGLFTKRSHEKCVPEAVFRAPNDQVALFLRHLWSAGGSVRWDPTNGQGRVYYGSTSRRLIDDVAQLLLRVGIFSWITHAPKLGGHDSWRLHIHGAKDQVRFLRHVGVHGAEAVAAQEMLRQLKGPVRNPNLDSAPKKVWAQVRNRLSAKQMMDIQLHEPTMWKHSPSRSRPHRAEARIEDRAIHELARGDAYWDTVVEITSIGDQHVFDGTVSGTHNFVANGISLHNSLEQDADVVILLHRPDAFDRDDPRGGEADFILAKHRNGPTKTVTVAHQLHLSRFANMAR
Kind of assay: DnaB intein splicing inhibitors, dose response, biochemical, cell-free fluorescence (AID 449749). Type of assay: functional.

Assay [13] deals with T6, Kappa-type opioid receptor (Homo sapiens, UniProt P41145). The assay is classed as functional.
A further assay deals with Beta-galactosidase (Escherichia coli, UniProt Q8VNN2). Type of assay: functional.
Assay [14] has as its target T6, Kappa-type opioid receptor. Type of assay: functional. This is another data set of the same source.
The subject of another assay is P388/ADR. Kind of assay: cells. The conditions noted are these: Mus musculus. The assay is classed as functional.
A further assay concerns the target Cytochrome P450 3A4 (Homo sapiens, UniProt P08684). The conditions noted are these: Potency.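 Further: confirmatory qHTS run detecting inhibitors and substrates of CYP3A4.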
For the next assay, the system named is SN12K1. In words: cells. The conditions noted are these: Homo sapiens. Type of assay: functional.
A further assay has as its system P388. In words: cells. Type of assay: functional. The conditions noted are these: Mus musculus.

Structures are written as SMILES. pIC50: −log10 of the molar value. Activity calls are given as the source filed them.

T6 sequence (P41145 whole entry): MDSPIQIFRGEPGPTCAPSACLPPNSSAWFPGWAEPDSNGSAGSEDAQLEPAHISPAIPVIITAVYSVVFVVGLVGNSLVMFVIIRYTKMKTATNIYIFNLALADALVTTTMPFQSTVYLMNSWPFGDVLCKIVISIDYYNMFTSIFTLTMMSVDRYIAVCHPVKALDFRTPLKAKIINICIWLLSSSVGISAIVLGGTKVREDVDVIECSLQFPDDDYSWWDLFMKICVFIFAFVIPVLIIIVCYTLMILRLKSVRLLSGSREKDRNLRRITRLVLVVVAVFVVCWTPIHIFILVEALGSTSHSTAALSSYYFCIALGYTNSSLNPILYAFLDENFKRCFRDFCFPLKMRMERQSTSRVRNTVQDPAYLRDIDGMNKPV
Sequence of Cytochrome P450 3A4 (P08684 whole entry): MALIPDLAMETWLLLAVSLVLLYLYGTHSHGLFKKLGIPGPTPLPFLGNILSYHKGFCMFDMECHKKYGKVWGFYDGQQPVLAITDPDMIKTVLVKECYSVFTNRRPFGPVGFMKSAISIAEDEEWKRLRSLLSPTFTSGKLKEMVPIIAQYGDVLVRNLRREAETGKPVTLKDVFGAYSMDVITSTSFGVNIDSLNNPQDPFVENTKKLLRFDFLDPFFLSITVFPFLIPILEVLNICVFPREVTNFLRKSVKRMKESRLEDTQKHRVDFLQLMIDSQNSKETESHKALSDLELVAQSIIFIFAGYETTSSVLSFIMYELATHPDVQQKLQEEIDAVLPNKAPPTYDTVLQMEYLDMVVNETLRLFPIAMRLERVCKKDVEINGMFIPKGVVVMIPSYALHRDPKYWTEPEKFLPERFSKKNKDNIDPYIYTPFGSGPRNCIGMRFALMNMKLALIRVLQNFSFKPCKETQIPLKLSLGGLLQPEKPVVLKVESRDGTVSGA
Sequence of Beta-galactosidase (Q8VNN2 whole entry): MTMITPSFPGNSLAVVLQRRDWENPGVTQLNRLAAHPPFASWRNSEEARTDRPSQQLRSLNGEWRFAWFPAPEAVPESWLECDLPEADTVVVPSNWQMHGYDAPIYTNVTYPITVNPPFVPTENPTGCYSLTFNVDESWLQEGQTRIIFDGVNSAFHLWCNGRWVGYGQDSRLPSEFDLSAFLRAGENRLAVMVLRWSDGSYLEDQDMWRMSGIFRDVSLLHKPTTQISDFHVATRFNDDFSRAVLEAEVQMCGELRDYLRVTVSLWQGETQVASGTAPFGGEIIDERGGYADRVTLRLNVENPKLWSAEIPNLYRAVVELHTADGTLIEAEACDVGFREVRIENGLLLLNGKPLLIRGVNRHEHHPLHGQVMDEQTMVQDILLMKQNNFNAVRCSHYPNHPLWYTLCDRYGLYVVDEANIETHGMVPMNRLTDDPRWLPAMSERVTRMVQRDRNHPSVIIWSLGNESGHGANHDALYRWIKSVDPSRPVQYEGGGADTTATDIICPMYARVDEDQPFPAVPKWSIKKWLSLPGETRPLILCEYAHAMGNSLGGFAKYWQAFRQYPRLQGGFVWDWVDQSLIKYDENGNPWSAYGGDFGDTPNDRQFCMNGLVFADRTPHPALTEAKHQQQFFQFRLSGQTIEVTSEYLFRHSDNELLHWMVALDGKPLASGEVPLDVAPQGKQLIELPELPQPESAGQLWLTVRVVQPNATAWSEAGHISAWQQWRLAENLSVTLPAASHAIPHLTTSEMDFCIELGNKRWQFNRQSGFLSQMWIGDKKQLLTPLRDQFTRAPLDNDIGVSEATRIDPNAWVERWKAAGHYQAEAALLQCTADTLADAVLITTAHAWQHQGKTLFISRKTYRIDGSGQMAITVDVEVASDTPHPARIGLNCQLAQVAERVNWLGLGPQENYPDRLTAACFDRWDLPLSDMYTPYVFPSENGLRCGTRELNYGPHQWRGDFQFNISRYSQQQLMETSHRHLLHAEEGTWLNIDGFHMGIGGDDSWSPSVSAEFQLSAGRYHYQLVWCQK

For the compound `O=C(CCNS(=O)(=O)c1cccc2nsnc12)NC1CCN(Cc2ccccc2)CC1`, in [1], the EC50 is recorded as > 50 µM (not active).

In the case of `Cc1ccccc1CS(=O)(=O)Cc1ccc(C(=O)NCc2ccco2)o1`, the concentration giving a half-maximal response (EC50) in assay [1] is given as > 50 µM (not active).

With `CCOc1ccc(-n2c(C)cc(C(=O)CCl)c2C)cc1`, the EC50 in [2] is > 120 µM (not active); in assay [3], > 38 µM (not active); at Protein RecA, 11.7 µM (active); with BJ [4], 4.29 µM (active); with BJ [5] it was 4.84 µM (active); in assay [7] it was 15 µM (active). Moreover, the EC50 is 9.56 µM (active) in assay [8], > 120 µM (not active) in assay [9], 4.21 µM (inconclusive) in assay [10] and 9.67 µM (inconclusive) in the assay on BJ [11]. For the same compound, the IC50 at Hexokinase HKDC1 was 47.7 µM (inactive). For the same compound, the AC50 is 4.59 µM (active) in [6] and 8.96 µM (active) in assay [12].

Take `Oc1ccc2c3c1O[C@H]1c4oc5ccccc5c4C[C@@]4(O)[C@@H](C2)N(CC2CC2)CC[C@]314`: the IC50 in assay [13] is 0.699 µM (active). Also, the EC50 at Beta-galactosidase was > 31.5 µM (inactive). The compound further had a pIC50 in assay [14] of over 6.30.

For the compound `COC1=CC(=O)C=C(OC)C1=O` [2,6-DIMETHOXYQUINONE], the values for the GI50 with P388/ADR, with SN12K1 and with P388 were 0.457 µM (active), 7.38 µM (inactive) and 0.401 µM (active), respectively. Further, the AC50 on Cytochrome P450 3A4 was 25.1 µM (inconclusive). Moreover, the IC50 on Hexokinase HKDC1 was 2.49 µM (active).
